According to ChEMBL document CHEMBL1201862, “PubChem BioAssay data set” (2004):
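Each compound was tested at five concentrations against cells in 96-well plates for 48 hours. Here, GI50 denotes the concentration required for 50% inhibition of growth.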 Calls of active or inactive are those of the source. No stated cut-off is given here; in the data, active = GI50 up to about 1.1 µM and inactive = higher. Where a SMILES comes first, the peptide text is derived from it. [ ]: non-standard residue; d: D form. Phe(4-NO2) = N[CH](Cc1ccc([N+](=O)[O-])cc1)C(=O)O

Columns and labels:
Assay in all cases: DTP human tumour cell line panel, 48 h
[1] = tested on: A549
[2] = tested on: CCRF-CEM
[3] = tested on: EKVX
[4] = tested on: HCC 2998
[5] = tested on: HCT-116
[6] = tested on: HCT-15
[7] = tested on: HOP-92
[8] = tested on: Hs-578T
[9] = tested on: MOLT-4
[10] = tested on: NCI-H460
[11] = tested on: OVCAR-3
[12] = tested on: OVCAR-8
[13] = tested on: PC-3
[14] = tested on: SK-MEL-2
[15] = tested on: SW-620
[16] = tested on: T47D
[17] = tested on: TK-10
[18] = tested on: UACC-257
[19] = tested on: UACC-62
[20] = tested on: SNB-78

| Structure (SMILES) | GI50 [1] | GI50 [2] | GI50 [3] | GI50 [4] | GI50 [5] | GI50 [6] | GI50 [7] | GI50 [8] | GI50 [9] | GI50 [10] | GI50 [11] | GI50 [12] | GI50 [13] | GI50 [14] | GI50 [15] | GI50 [16] | GI50 [17] | GI50 [18] | GI50 [19] | GI50 [20] |
| --- | --- | --- | --- | --- | --- | --- | --- | --- | --- | --- | --- | --- | --- | --- | --- | --- | --- | --- | --- | --- |
| C=C1CC(COc2cc(=O)oc3ccccc23)(c2ccccc2)OC1=O (stereo not given) | 11.2 µM (inactive) | 0.625 µM (active) | 6.27 µM (inactive) | 1.05 µM (active) | 1.46 µM (inactive) | 1.82 µM | 1.01 µM (active) | 3.53 µM (inactive) | 7.94 µM (inactive) | 9.29 µM (inactive) | 1.37 µM (inactive) | 1.86 µM (inactive) | 1.95 µM (inactive) | 1.08 µM (active) | 1.17 µM (inactive) | 2.25 µM (inactive) | 1.59 µM (inactive) | 1.99 µM (inactive) | 1.41 µM (inactive) | – |
| O=C(c1ccco1)N(C(=S)N1CCN(c2ccccn2)CC1)c1ccccc1 | > 100 µM (inactive) | > 100 µM (inactive) | – | – | > 100 µM (inactive) | > 100 µM | > 100 µM (inactive) | – | > 100 µM (inactive) | > 100 µM (inactive) | > 100 µM (inactive) | > 100 µM (inactive) | – | > 100 µM (inactive) | > 100 µM (inactive) | – | > 100 µM (inactive) | > 100 µM (inactive) | > 100 µM (inactive) | > 100 µM (inactive) |
| COc1cc2c3c(c1OC)C1(C=CC(=O)C=C1)CC3NCC2 (stereo not given) | > 100 µM (inactive) | 48.8 µM (inactive) | > 100 µM (inactive) | > 100 µM (inactive) | > 100 µM (inactive) | > 100 µM | > 100 µM (inactive) | > 100 µM (inactive) | > 100 µM (inactive) | > 100 µM (inactive) | > 100 µM (inactive) | > 100 µM (inactive) | > 100 µM (inactive) | > 100 µM (inactive) | > 100 µM (inactive) | > 100 µM (inactive) | > 100 µM (inactive) | > 100 µM (inactive) | > 100 µM (inactive) | – |
| CCN(C1=CC(=O)NC2CCCCN12)c1ccccc1 (stereo not given) | > 100 µM (inactive) | > 100 µM (inactive) | > 100 µM (inactive) | > 100 µM (inactive) | > 100 µM (inactive) | > 100 µM | – | – | > 100 µM (inactive) | > 100 µM (inactive) | > 100 µM (inactive) | > 100 µM (inactive) | – | > 100 µM (inactive) | > 100 µM (inactive) | – | > 100 µM (inactive) | > 100 µM (inactive) | > 100 µM (inactive) | > 100 µM (inactive) |
| N#CSC/C(Cl)=C/Cl.N#CSC/C(Cl)=C\Cl | > 100 µM (inactive) | 34.8 µM (inactive) | > 100 µM (inactive) | 0.069 µM (active) | > 100 µM (inactive) | > 100 µM | > 100 µM (inactive) | > 100 µM (inactive) | 29.7 µM (inactive) | > 100 µM (inactive) | > 100 µM (inactive) | > 100 µM (inactive) | > 100 µM (inactive) | > 100 µM (inactive) | > 100 µM (inactive) | > 100 µM (inactive) | > 100 µM (inactive) | > 100 µM (inactive) | > 100 µM (inactive) | – |
| C/C(=N\NS(=O)(=O)c1ccc(C)cc1)c1ccccn1 | 53.3 µM (inactive) | 18.5 µM (inactive) | 35.5 µM (inactive) | > 100 µM (inactive) | 40.7 µM (inactive) | 38.5 µM | > 100 µM (inactive) | 87.3 µM (inactive) | 21.2 µM (inactive) | 49.7 µM (inactive) | 50.7 µM (inactive) | 50.8 µM (inactive) | 84.3 µM (inactive) | > 100 µM (inactive) | > 100 µM (inactive) | 76.9 µM (inactive) | 70.6 µM (inactive) | 81.8 µM (inactive) | 40.2 µM (inactive) | – |
| CN(CCNC(=O)c1nn(-c2ccccc2)c2c1Cc1ccccc1-2)CCNC(=O)c1nn(-c2ccccc2)c2c1Cc1ccccc1-2 | 2.06 µM (inactive) | 1.77 µM (inactive) | 4.44 µM (inactive) | 1.74 µM (inactive) | 1.65 µM (inactive) | 1.88 µM | 1.53 µM (inactive) | 1.87 µM (inactive) | 3.65 µM (inactive) | 1.69 µM (inactive) | 1.68 µM (inactive) | 1.68 µM (inactive) | 2.19 µM (inactive) | 1.86 µM (inactive) | 1.48 µM (inactive) | 2.48 µM (inactive) | 2.04 µM (inactive) | 1.79 µM (inactive) | 1.71 µM (inactive) | – |
| Cc1ccc(NC(=S)N/N=C(/c2ccccc2)c2ccccn2)cc1 | 0.108 µM (active) | 0.0109 µM (active) | 0.0675 µM (active) | 2.22 µM (inactive) | < 0.01 µM (active) | < 0.019 µM | 0.278 µM (active) | 13.1 µM (inactive) | < 0.0118 µM (active) | 0.117 µM (active) | 0.0169 µM (active) | 0.0569 µM (active) | < 0.0154 µM (active) | 4.52 µM (inactive) | < 0.0183 µM (active) | < 0.0509 µM (active) | 0.0631 µM (active) | < 0.0156 µM (active) | 0.304 µM (active) | – |
| Cc1cc2ncn(-c3nc4ccccc4nc3C(C#N)S(C)(=O)=O)c2cc1C (stereo not given) | > 100 µM (inactive) | > 100 µM (inactive) | > 100 µM (inactive) | > 100 µM (inactive) | > 100 µM (inactive) | > 100 µM | – | – | > 100 µM (inactive) | > 100 µM (inactive) | > 100 µM (inactive) | > 100 µM (inactive) | – | > 100 µM (inactive) | > 100 µM (inactive) | – | > 100 µM (inactive) | > 100 µM (inactive) | > 100 µM (inactive) | > 100 µM (inactive) |
| O=C1NC2=NOC(=O)NC2=NO1 | > 200 µM (inactive) | > 200 µM (inactive) | > 200 µM (inactive) | > 200 µM (inactive) | > 200 µM (inactive) | > 200 µM | > 200 µM (inactive) | > 200 µM (inactive) | > 200 µM (inactive) | > 200 µM (inactive) | > 200 µM (inactive) | > 200 µM (inactive) | > 200 µM (inactive) | > 200 µM (inactive) | > 200 µM (inactive) | > 200 µM (inactive) | > 200 µM (inactive) | > 200 µM (inactive) | > 200 µM (inactive) | – |
| CC(=O)O[C@H]1C(=O)[C@@]2(C)[C@H]([C@H](OC(=O)C3CCCCC3)[C@]3(O)C[C@H](OC(=O)[C@H](O)[C@@H](NC(=O)OC(C)(C)C)c4ccccc4)C(C)=C1C3(C)C)[C@]1(OC(C)=O)CO[C@@H]1C[C@@H]2O | 0.0194 µM (active) | 0.00499 µM (active) | > 12.5 µM (inactive) | 0.0299 µM (active) | 0.00378 µM (active) | 0.268 µM | 0.0148 µM (active) | 0.00548 µM (active) | 0.00474 µM (active) | 0.00762 µM (active) | 0.00125 µM (active) | 0.0144 µM (active) | 0.0168 µM (active) | 0.0803 µM (active) | 0.00634 µM (active) | 0.0678 µM (active) | 0.151 µM (active) | 0.0252 µM (active) | 0.0129 µM (active) | – |
| CC(C)(C)OC(=O)c1ccc(NCC2=C(Br)C(=O)C=CC2=O)cc1 | 57.8 µM (inactive) | 2.42 µM (inactive) | 19.7 µM (inactive) | 21.5 µM (inactive) | 17.7 µM (inactive) | 15.6 µM | 14.5 µM (inactive) | 19.1 µM (inactive) | 1.42 µM (inactive) | 36.3 µM (inactive) | 10.6 µM (inactive) | 16.5 µM (inactive) | 27.4 µM (inactive) | 28.6 µM (inactive) | 16.4 µM (inactive) | 17.5 µM (inactive) | 22.1 µM (inactive) | 21.7 µM (inactive) | 16.6 µM (inactive) | – |
| O=C1C=CC(=O)c2ncccc21 | 10.1 µM (inactive) | 0.787 µM (active) | 3.37 µM (inactive) | 7.26 µM (inactive) | 1.89 µM (inactive) | 2.08 µM | 1.63 µM (inactive) | 10.2 µM (inactive) | 2.36 µM (inactive) | 3.98 µM (inactive) | 1.3 µM (inactive) | 9.04 µM (inactive) | 9.82 µM (inactive) | 13.6 µM (inactive) | 1.93 µM (inactive) | 2.19 µM (inactive) | 6.28 µM (inactive) | 5.05 µM (inactive) | 2.99 µM (inactive) | – |
| COc1ccc(/C=C/C(=O)c2ccccc2)cc1OC | 20.9 µM (inactive) | 2.53 µM (inactive) | 14.8 µM (inactive) | 17.9 µM (inactive) | 6.38 µM (inactive) | 7.03 µM | 18.5 µM (inactive) | 25 µM (inactive) | 13.5 µM (inactive) | 16.6 µM (inactive) | 11.4 µM (inactive) | 16.3 µM (inactive) | 11.3 µM (inactive) | 17.3 µM (inactive) | 4.23 µM (inactive) | 10.8 µM (inactive) | 17.2 µM (inactive) | 17.3 µM (inactive) | 13.4 µM (inactive) | – |
| CC(NC(=O)C(Cc1ccc([N+](=O)[O-])cc1)NC(=O)C(N)CCCCN)C(=O)NC(Cc1ccc([N+](=O)[O-])cc1)C(N)=O (stereo not given) (H-K[Phe(4-NO2)]A[Phe(4-NO2)]-NH2; configuration not given here) | 23 µM (inactive) | > 100 µM (inactive) | > 71.4 µM (inactive) | 28.1 µM (inactive) | > 45.2 µM (inactive) | 56.6 µM | 28.3 µM (inactive) | > 68.7 µM (inactive) | > 31.6 µM (inactive) | 20.6 µM (inactive) | 17.4 µM (inactive) | 23.9 µM (inactive) | 32.5 µM (inactive) | 51.5 µM (inactive) | 27.2 µM (inactive) | > 49.1 µM (inactive) | > 59.4 µM (inactive) | > 68.2 µM (inactive) | > 100 µM (inactive) | – |
